From PMC7997578, “Design, Synthesis, Dynamic Docking, Biochemical Characterization, and in Vivo Pharmacokinetics Studies of Novel Topoisomerase II Poisons with Promising Antiproliferative Activity” (Journal of Medicinal Chemistry, 2020)

Experiment: in vivo pharmacokinetics in mice
Conditions: mouse
Description: Finally, on the basis of the overall results and drug-like profile, 3f was selected as our lead for in vivo pharmacokinetics studies, as a preparatory characterization for future analyses of in vivo drug efficacy in animal models of cancer. We tested two different routes of administration: (i) intravenous (iv) injection at a concentration of 3 mg/kg (n = 3 for each time point) and oral (po) treatment at a dose of 10 mg/kg (n = 3 for each time point). Despite the relatively low thermodynamic solubility of 3f (30 μM in PBS), the compound reached the target concentration in the formulation used for the in vivo experiments. The mean plasma concentration versus time profile of 3f is shown in Figure 5, and the corresponding pharmacokinetic parameters are summarized in the inserted table.
Male C57B6/J male mice, 8 weeks old, 25-30 g were used (Charles River). All procedures were performed in accordance with the Ethical Guidelines of European Communities Council (Directive 2010/63/EU of 22 September 2010) and accepted by the Italian Ministry of Health. All efforts were made to minimize animal suffering and to use the minimal number of animals required to produce reliable results, according to the “3Rs concept”. Animals were group-housed in ventilated cages (n=5 mice per cage) and had free access to food and water. They were maintained under a 12-hour light/dark cycle (lights on at 8:00 am) at controlled temperature (21°C ± 1°C) and relative humi dity […]
4. Pharm acok inet ic studies
Compound 3f was administered orally (P.O.) and intravenously (I.V.) to C57B6/J male mice at 10 and 3 mg/Kg dose. Vehicle was: PEG400/Tween 80/Saline solution at 10/10/80 % in volume respectively. 3f was first dissolved in 100% PEG, then diluted to the final target concentration in this vehicle. The target concentration of 3f in the dosing solution was checked and confirmed by LC-MS .
The dosing solutions were diluted differently in the vehicle. The different dilutions were further diluted 4-fold with CH3CN prior to analysis. A reference standard was spiked in the vehicle to prepare a calibration curve over a 0.1 -10µM range. The ca librators were also diluted 4 -fold with CH3CN as for the dosing solution dilutions. The dosing solutions and calibrators were analys ed under the sam e conditions as for the plasma samples described below.
Three animals per dose were treated. Blood samples at 0, 15, 30, 60, 120, 240, and 480 minutes after administration were collected for PO arm. Blood samples at 0, 5, 15, 30, 60, 120 and 240 minutes after administration were collected for IV arm. Plasma was separated from blood by centrifugation for 15 minutes at 3500 rpm a 4°C, collected in a eppendorf tube and frozen ( -80°C). Brain samples were homogenized in Phosphate buffered saline a nd were then split in two aliquots kept at -80 °C until analysis. An aliquot was used for compound brain level evaluations, following the same procedure described below for plasma samples. The second aliquot was kept for protein content evaluation by bicinchoninic acid assay (BC A). Control animals treated with vehicle only w ere also included in the experimental protocol.
Plasma samples were centrifuged at 21.100g for 15min. at 4°C. A 50µl aliquot was transferred into a 96-Deep Well plate and 150µl of extraction so lution was added. The extraction solution was consisting of cold CH3CN spiked with 200n M of internal standard. The plate was centrifuged at 3270g for 15min. at 4°C. 80µl of supernatant was then transferred into a 96 -Deep Well plate and 80µl of H2O was added. A reference standard of the compound was spiked in naïve mouse plasma to prepare a calibration curve over a 1nM – 10µM range. Three quality control samples were prepared by spiking the compound in blank mouse plasma to the final concentrations of 20, 200 and 2000nM.
Calibrators and quality controls were extracted wit h the same e xtraction solution used for the plasma samples. The samples w ere analysed on a W aters ACQUITY UPLC/MS TQD system (Water s Inc. […]

## O=C(Nc1cccc(OC(F)(F)F)c1)c1c(O)n(-c2ccccc2)c(=S)n(-c2ccccc2)c1=O [3f, 6-Hydroxy-4-oxo-1,3-diphenyl-2-thioxo-N-(3-(trifluoromethoxy)phenyl)-1,2,3,4-tetrahydropyrimidine-5-carboxamide]
male, C57B6/J, plasma, iv 3 mg/kg, 2 h, read-out: plasma concentration after 2 h
  concentration at 2 h: 551 ng/mL
male, C57B6/J, plasma, po 10 mg/kg vs iv 3 mg/kg, based on AUC from t = 0 to 240 min, read-out: bioavailability F
  bioavailability: 8%
Iv 3 mg/kg
  AUCplasma: 295528 ng·min/mL
  CL: 4 mL/min/kg
  Clp: 0.004 L min^–1 kg^–1
  Tmax: 0.083 h
  Vd: 3 L/kg
  t½ (elimination phase): 0.5 h
Iv 3 mg/kg or po 10 mg/kg
  tolerability during PK studies: well tolerated
  treatment-related clinical signs: no treatment-related clinical signs were observed
Iv 3 mg/kg, plasma
  Cmax: 7366 ng/mL
Po 10 mg/kg
  AUCplasma: 77385 ng·min/mL
  Tmax: 2 h
  Vd: 18 L/kg
  plasma concentration reached at 1 h and stably maintained for at least 6 h: about 400 ng/mL
  time of maximum concentration: approximately 2 h
  t½ (elimination phase): 3.17 h
Po 10 mg/kg, plasma
  Cmax: 428 ng/mL
